Patent US20240400571A1, “5,6 UNSATURATED BICYCLIC HETEROCYLES USEFUL AS INHIBITORS OF NOD-LIKE RECEPTOR PROTEIN 3” (Merck Sharp & Dohme LLC, priority 2023, published 2024)

Target: T1, NLRP3 inflammasome (Homo sapiens, UniProt Q96P20)
T1 construct: host or cells: THP-1 human monocytic cells, treated with PMA and stimulated with gramicidin
Experiment: ASC-SPECK formation in THP-1 cells after gramicidin stimulation (NLRP3 inflammasome activation)
Assay type: cell-based
Conditions: PMA-treated human monocytic THP-1 cells; compound 1 h before 12.5 μg/ml gramicidin, 3-hour treatment; ASC SPECK imaging; read-out: EC50 values (nM) for Examples that inhibit NLRP3 inflammasome activation
Procedure: The ability of compounds to inhibit NLRP3 inflammasome activation was determined in vitro by monitoring formation of the ASC-SPECK in human monocytic THP-1 cells after stimulation. THP-1 cells (ATCC catalog #TIB-202) were maintained in complete growth media containing Roswell Park Memorial Institute RPMI (ATCC catalog #30-2001), 10% heat inactivated fetal bovine serum, 1× penicillin/streptomycin and 0.05 mM 2-mercaptoethanol. At the start of the assay, undifferentiated THP-1 cells were plated at a density of 20,000 cells per well in a 384-well plate (Poly-D-lysine coated Cell Carrier Ultra microplate, Perkin Elmer catalog #6057500) in complete growth media supplemented with 10 ng/ml phorbol 12-myristate 13-acetate (PMA; Sigma catalog #P8139), and then incubated overnight. The next day, media was replaced with assay media [RPMI (Gibco catalog #11875-093), 0.01% bovine serum albumin (BSA)]. Compounds were serially diluted in DMSO and then added to wells one hour prior to the addition of 12.5 μg/ml Gramicidin (Enzo Lifescience, catalog #ALX-350-233-M005). All incubations were carried out at 37° C. (5% CO2/95% air). Following a 3-hour treatment with gramicidin, cells are fixed with 4% paraformaldehyde and stored at 4° C. until immunofluorescence staining.
Immunofluorescence staining: Anti-ASC antibody (MBL catalog #D086-3) was desalted and labeled with Alexa 488 antibody labeling kit (Thermo catalog #A20181) prior to use as described below. After fixation, the following steps were carried out at room temperature. Cells were first permeabilized with 0.3% Triton X-100 in phosphate-buffered saline (PBS) for 15 minutes and then incubated in blocking buffer containing 5% goat serum, 0.3% tween-20 and 0.03% sodium azide in PBS for 1 hour. Cells were stained with a mixture of ASC-Alexa 488 antibody (diluted 1:200 in blocking buffer) and nuclear stain DRAQ5 (1:5000 in blocking buffer, Thermo catalog #62251) in blocking buffer for 1 hour. Following a wash with 0.3% Tween-20 in PBS, plates were imaged with an Opera Phenix High Content Screening System. The number of DRAQ5 positive cells containing ASC SPECKS were quantified in each well.
Data analysis: EC50 values were calculated by standard curve-fitting analysis using an internally developed program in TIBCO Spotfire software.

T1 sequence (Q96P20 whole entry): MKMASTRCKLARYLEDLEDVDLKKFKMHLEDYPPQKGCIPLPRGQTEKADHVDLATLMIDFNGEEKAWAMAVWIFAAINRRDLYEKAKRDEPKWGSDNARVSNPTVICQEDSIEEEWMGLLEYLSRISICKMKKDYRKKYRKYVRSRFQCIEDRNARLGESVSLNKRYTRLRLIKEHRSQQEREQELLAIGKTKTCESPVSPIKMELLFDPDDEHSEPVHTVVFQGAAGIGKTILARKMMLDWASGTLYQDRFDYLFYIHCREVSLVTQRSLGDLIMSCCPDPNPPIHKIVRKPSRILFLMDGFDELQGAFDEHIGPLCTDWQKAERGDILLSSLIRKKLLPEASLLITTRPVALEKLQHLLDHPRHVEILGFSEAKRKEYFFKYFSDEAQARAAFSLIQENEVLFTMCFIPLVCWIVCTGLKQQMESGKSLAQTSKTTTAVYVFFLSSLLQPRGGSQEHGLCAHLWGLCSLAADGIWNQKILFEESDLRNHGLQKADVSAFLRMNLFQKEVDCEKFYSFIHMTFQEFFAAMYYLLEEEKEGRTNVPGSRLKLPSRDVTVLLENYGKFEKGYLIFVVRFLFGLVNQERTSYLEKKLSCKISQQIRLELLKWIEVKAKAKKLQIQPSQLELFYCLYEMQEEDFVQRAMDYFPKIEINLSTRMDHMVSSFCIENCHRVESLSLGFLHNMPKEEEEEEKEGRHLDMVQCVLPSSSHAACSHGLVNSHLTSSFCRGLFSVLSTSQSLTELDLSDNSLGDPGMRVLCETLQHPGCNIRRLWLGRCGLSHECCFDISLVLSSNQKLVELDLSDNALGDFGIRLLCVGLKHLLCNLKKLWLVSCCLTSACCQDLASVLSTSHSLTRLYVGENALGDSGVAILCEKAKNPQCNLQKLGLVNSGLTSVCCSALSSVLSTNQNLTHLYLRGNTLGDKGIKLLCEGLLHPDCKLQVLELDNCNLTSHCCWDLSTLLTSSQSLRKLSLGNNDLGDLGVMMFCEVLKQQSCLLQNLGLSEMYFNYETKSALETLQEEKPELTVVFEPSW

Row | Structure (SMILES) | EC50
1 | Cc1c(-c2ccc(C(F)(F)F)cc2O)nnc2c1ncn2C12CCCC(N)(C1)C2 [Example 32, 2-(7-(5-aminobicyclo[3.1.1]heptan-1-yl)-4-methyl-7H-imidazo[4,5-c]pyridazin-3-yl)-5-(trifluoromethyl)phenol] | 47 nM
2 | Cc1c(-c2ccc(C(F)(F)F)cc2O)nnc2c1ncn2[C@H]1CN(C)CC[C@H]1O [Example 11, (3S,4R)-3-(3-(2-hydroxy-4-(trifluoro-methyl)phenyl)-4-methyl-7H-imidazo[4,5-c]pyridazin-7-yl)-1-methylpiperidin-4-ol] | 147 nM
3 | Cc1c(-c2ccc(C(F)(F)F)cc2O)nnc2c1ncn2[C@@H]1CC[C@@H]2CC[C@H]1N2C (single isomer, unassigned) [Example 29] | 26 nM
4 | CCN1CCC[C@@H](n2ccc3cc(-c4c(C)cc(C(F)(F)F)cc4O)nnc32)C1 [Example 1, (R)-2-(7-(1-ethylpiperidin-3-yl)-7H-pyrrolo[2,3-c]pyridazin-3-yl)-3-methyl-5-(trifluoromethyl)phenol] | 19 nM
5 | CCN1CCC[C@@H](n2cnc3c(C)c(-c4ccc(C(F)(F)F)cc4OC(F)F)nnc32)C1 [Example 9, (R)-3-(2-(difluoromethoxy)-4-(trifluoromethyl)phenyl)-7-(1-ethylpiperidin-3-yl)-4-methyl-7H-imidazo[4,5-c]pyridazine] | 699 nM
6 | Cc1c(-c2ccc(C(F)(F)F)cc2O)nnc2c1ncn2[C@@H]1CCCN2CCC[C@@H]12 (single isomer, unassigned) [Example 34] | 87 nM
7 | CCN1[C@@H]2CC[C@H]1[C@@H](n1cnc3c(C)c(-c4ccc(C(F)(F)F)cc4O)nnc31)CC2 (single isomer, unassigned) [Example 31] | 889 nM
8 | Cc1c(-c2ccc(C(F)(F)F)cc2O)nnc2c1ncn2[C@H]1CC[C@H]2CC[C@@H]1N2C (single isomer, unassigned) [Example 28] | 1410 nM
9 | CN1CCCC(n2cnc3cc(-c4ccc(C(F)(F)F)cc4O)nnc32)C1 (racemic) [Example 8, (R and S)-2-(7-(1-methylpiperidin-3-yl)-7H-imidazo[4,5-c]pyridazin-3-yl)-5-(trifluoromethyl)phenol] | 1000 nM
10 | CCN1CC[C@@H](O)[C@@H](n2cnc3c(C)c(-c4ccc(C(F)(F)F)cc4O)nnc32)C1 [Example 12, (3S,4R)-1-ethyl-3-(3-(2-hydroxy-4-(trifluoro-methyl)phenyl)-4-methyl-7H-imidazo[4,5-c]pyridazin-7-yl)piperidin-4-ol] | 103 nM
11 | Cc1c(-c2ccc(C(F)(F)F)cc2O)nnc2c1ncn2[C@H]1CNCC[C@H]1O [Example 6, (3S,4R)-3-(3-(2-hydroxy-4-(trifluoro-methyl)phenyl)-4-methyl-7H-imidazo[4,5-c]pyridazin-7-yl)piperidin-4-ol] | 550 nM
12 | Cc1c(-c2ccc(C(F)(F)F)cc2O)nnc2c1ncn2[C@@H]1CC[C@@H]2CC[C@H]1N2 (single isomer, unassigned) [Example 24] | 130 nM
13 | CCN1CCC[C@@H](n2cnc3cc(-c4c(C)cc(C(F)(F)F)cc4O)nnc32)C1 [Example 3, (R)-2-(7-(1-ethylpiperidin-3-yl)-7H-imidazo[4,5-c]pyridazin-3-yl)-3-methyl-5-(trifluoromethyl)phenol] | 21 nM
14 | Cc1cc(C(F)(F)F)cc(O)c1-c1cc2ncn(C3CCCN(C)C3)c2nn1 (racemic) [Example 4, (R and S)-3-methyl-2-(7-(1-methylpiperidin-3-yl)-7H-imidazo[4,5-c]pyridazin-3-yl)-5-(trifluoromethyl)phenol] | 91 nM
15 | Cc1c(-c2ccc(C(F)(F)F)cc2O)nnc2c1ncn2[C@@H]1CCCNC1 [Example 5, (R)-2-(4-methyl-7-(piperidin-3-yl)-7H-imidazo[4,5-c]pyridazin-3-yl)-5-(trifluoromethyl)phenol] | 143 nM
16 | Cc1c(-c2ccc(C(F)(F)F)cc2O)nnc2c1ncn2[C@H]1CC[C@H]2CC[C@@H]1N2 (single isomer, unassigned) [Example 25] | 1010 nM
17 | CCN1[C@H]2CC[C@@H]1[C@H](n1cnc3c(C)c(-c4ccc(C(F)(F)F)cc4O)nnc31)CC2 (single isomer, unassigned) [Example 30] | 9 nM
18 | Cc1c(-c2ccc(C(F)(F)F)cc2O)nnc2c1nc(C)n2[C@@H]1CCCN(C)C1 [Example 14, (R)-2-(4,6-dimethyl-7-(1-methylpiperidin-3-yl)-7H-imidazo[4,5-c]pyridazin-3-yl)-5-(trifluoromethyl)phenol] | 567 nM

Second part, the molecule after the results:

Row | EC50 | Structure (SMILES)
19 | 112 nM | Cc1c(-c2ccc(C(F)(F)F)cc2O)nnc2c1ncn2[C@@H]1CCCN(C2CCC2)C1 [Example 23, (R)-2-(7-(1-cyclobutylpiperidin-3-yl)-4-methyl-7H-imidazo[4,5-c]pyridazin-3-yl)-5-(trifluoromethyl)phenol]
20 | 29 nM | [2H]C([2H])([2H])N1CCC[C@@H](n2cnc3c(C)c(-c4ccc(C(F)(F)F)cc4O)nnc32)C1 [Example 35, (R)-2-(4-methyl-7-(1-(methyl-d3)piperidin-3-yl)-7H-imidazo[4,5-c]pyridazin-3-yl)-5-(trifluoromethyl)phenol]
21 | 1530 nM | Cc1c(-c2ccc(C3CC3)c(F)c2O)nnc2c1ncn2[C@@H]1CCCN(C)C1 [Example 27, (R)-3-cyclopropyl-2-fluoro-6-(4-methyl-7-(1-methylpiperidin-3-yl)-7H-imidazo-[4,5-c]pyridazin-3-yl)phenol]
22 | 320 nM | Cc1c(-c2ccc(Cl)cc2O)nnc2c1ncn2[C@@H]1CCCNC1 [Example 13, (R)-5-chloro-2-(4-methyl-7-(piperidin-3-yl)-7H-imidazo[4,5-c]pyridazin-3-yl)phenol]
23 | 996 nM | Cc1c(-c2ccc3c(c2O)CC(F)(F)C3)nnc2c1ncn2[C@@H]1CCCN(C)C1 [Example 21, (R)-2,2-difluoro-5-(4-methyl-7-(1-methylpiperidin-3-yl)-7H-imidazo[4,5-c]pyridazin-3-yl)-2,3-dihydro-1H-inden-4-ol]
24 | 28 nM | Cc1c(-c2ccc(Cl)cc2O)nnc2c1ncn2[C@@H]1CCCN(C)C1 [Example 17, (R)-5-chloro-2-(4-methyl-7-(1-methylpiperidin-3-yl)-7H-imidazo[4,5-c]pyridazin-3-yl)phenol]
25 | 23 nM | Cc1c(-c2ccc3c(c2O)CCC3)nnc2c1ncn2[C@@H]1CCCN(C)C1 [Example 16, (R)-5-(4-methyl-7-(1-methylpiperidin-3-yl)-7H-imidazo[4,5-c]pyridazin-3-yl)-2,3-dihydro-1H-inden-4-ol]
26 | 25 nM | Cc1c(-c2ccc(C(F)(F)F)cc2O)nnc2c1ncn2[C@@H]1CCCN(C)C1 [Example 10, (R)-2-(4-methyl-7-(1-methylpiperidin-3-yl)-7H-imidazo[4,5-c]pyridazin-3-yl)-5-(trifluoromethyl)phenol]
27 | 29 nM | CCN1CCC[C@@H](n2cnc3c(C)c(-c4ccc(Cl)cc4O)nnc32)C1 [Example 18, (R)-5-chloro-2-(7-(1-ethylpiperidin-3-yl)-4-methyl-7H-imidazo[4,5-c]pyridazin-3-yl)phenol]
28 | 81 nM | Cc1c(-c2c(O)cc(Cl)cc2F)nnc2c1ncn2[C@@H]1CCCN(C)C1 [Example 26, 5-chloro-3-fluoro-2-(4-methyl-7-((R)-1-methylpiperidin-3-yl)-7H-imidazo-[4,5-c]pyridazin-3-yl)phenol]
29 | 13 nM | CCN1CCC[C@@H](n2cnc3c(C)c(-c4ccc(C(F)(F)F)cc4O)nnc32)C1 [Example 7, (R)-2-(7-(1-ethylpiperidin-3-yl)-4-methyl-7H-imidazo[4,5-c]pyridazin-3-yl)-5-(trifluoromethyl)phenol]
30 | 61 nM | Cc1c(-c2ccc3sccc3c2O)nnc2c1ncn2[C@@H]1CCCN(C)C1 [Example 15, (R)-5-(4-methyl-7-(1-methylpiperidin-3-yl)-7H-imidazo[4,5-c]pyridazin-3-yl)benzo[b]thiophen-4-ol]
31 | 53 nM | Cc1c(-c2ccc3c(c2O)CCC3)nnc2c1ncn2[C@@H]1CCCNC1 [Example 19, (R)-5-(4-methyl-7-(piperidin-3-yl)-7H-imidazo[4,5-c]pyridazin-3-yl)-2,3-dihydro-1H-inden-4-ol]
32 | 84 nM | Cc1ccc(-c2nnc3c(ncn3[C@@H]3CCCN(C)C3)c2C)c(O)c1F [Example 20, (R)-2-fluoro-3-methyl-6-(4-methyl-7-(1-methylpiperidin-3-yl)-7H-imidazo[4,5-c]pyridazin-3-yl)phenol]
33 | 1360 nM | Cc1c(-c2ccc(C(F)(F)F)cc2O)nnc2c1ncn2[C@H]1CCCN2CCC[C@H]12 (single isomer, unassigned) [Example 33]
